Reference: PubChem BioAssay (NCI)
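All cell lines were grown in 96-well plates and treated with compound for 48 hours. TGI denotes the concentration required for complete inhibition of growth.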

Experiments:
Experiment in all cases: DTP human tumour cell line panel, 48 h
U251 CNS = system: U251 CNS
OVCAR-3 ovarian = system: OVCAR-3 ovarian
HCT-116 colon = system: HCT-116 colon
NCI-H522 lung = system: NCI-H522 lung
786-0 renal = system: 786-0 renal
BT-549 breast = system: BT-549 breast
HOP-92 NSCLC = system: HOP-92 NSCLC
HS 578T breast = system: HS 578T breast
OVCAR-8 ovarian = system: OVCAR-8 ovarian
SNB-19 CNS = system: SNB-19 CNS
LOX IMVI melanoma = system: LOX IMVI melanoma
NCI/ADR-RES ovarian = system: NCI/ADR-RES ovarian
NCI-H226 lung = system: NCI-H226 lung
NCI-H460 lung = system: NCI-H460 lung
OVCAR-4 ovarian = system: OVCAR-4 ovarian
MALME-3M melanoma = system: MALME-3M melanoma
UACC-62 melanoma = system: UACC-62 melanoma
SNB-75 CNS = system: SNB-75 CNS
SK-MEL-28 melanoma = system: SK-MEL-28 melanoma
SR leukemia = system: SR leukemia

| Compound | TGI (U251 CNS) [µM] | TGI (OVCAR-3 ovarian) [µM] | TGI (HCT-116 colon) [µM] | TGI (NCI-H522 lung) [µM] | TGI (786-0 renal) [µM] | TGI (BT-549 breast) [µM] | TGI (HOP-92 NSCLC) [µM] | TGI (HS 578T breast) [µM] | TGI (OVCAR-8 ovarian) [µM] | TGI (SNB-19 CNS) [µM] | TGI (LOX IMVI melanoma) [µM] | TGI (NCI/ADR-RES ovarian) [µM] | TGI (NCI-H226 lung) [µM] | TGI (NCI-H460 lung) [µM] | TGI (OVCAR-4 ovarian) [µM] | TGI (MALME-3M melanoma) [µM] | TGI (UACC-62 melanoma) [µM] | TGI (SNB-75 CNS) [µM] | TGI (SK-MEL-28 melanoma) [µM] | TGI (SR leukemia) [µM] |
| --- | --- | --- | --- | --- | --- | --- | --- | --- | --- | --- | --- | --- | --- | --- | --- | --- | --- | --- | --- | --- |
| CC1=C(C)SC(=C2Sc3c(n(C)c(=O)[nH]c3=O)S2)S1 | > 100 | > 100 | > 100 | > 100 | > 100 | > 100 | > 100 | > 100 | > 100 | > 100 | > 100 | > 100 | > 100 | > 100 | > 100 | > 100 | > 100 | > 100 | > 100 |  |
| COC(=O)c1cc(C)ccc1/C=C1\Cc2cc(C)c(C)cc2C1=O |  | > 100 | > 100 | > 100 | > 100 | > 100 | > 100 | > 100 | > 100 | > 100 | > 100 |  | > 100 | > 100 | > 100 | > 100 | > 100 | 69.5 | > 100 | > 100 |
| COC1Cc2c(C)c(OC(C)=O)c3cccnc3c2O1 (stereo not drawn) | > 100 | 70.5 | > 100 | 13.6 | 34.3 | 41.5 | 33.8 | > 100 | 44.7 | > 100 |  | 67.4 | > 100 | 61.5 | 30.1 | 31.9 | 29 | 31.7 | 53 | 61.2 |
| COc1cc(-c2c[nH]c3ccccc23)nc(-c2c[nH]c3ccccc23)n1 | 14.9 | 19.6 | 13.6 |  | 4.67 | 38.4 | 8.53 | 68 | 19.3 | 21 | 16.5 | 59.6 |  | 12.8 | 28.8 |  | 18.6 | 17.7 |  | 22.1 |
| CC(=O)O[C@H]1C(=O)[C@@]2(C)C(C(OC(=O)c3ccccc3)[C@]3(O)CC(OC(=O)C(O)C(NC(=O)c4ccccc4)c4ccc(F)cc4)C(C)=C1C3(C)C)[C@]1(OC(C)=O)CO[C@@H]1C[C@@H]2O (stereo partly drawn) | > 10 |  | 0.103 | 1.34 | > 10 | > 10 | > 10 |  | > 10 | > 10 | > 10 | > 4.04 |  | > 10 | > 10 |  | > 10 | > 10 |  | > 3.82 |
| COC(C)(C)C(O)C(O)C[C@H](C)C1CC=C2C1(C)CCC1[C@@]3(C)CCC(OC(C)=O)C(C)(C)C3CC(OC3OC(COC(C)=O)C(O)C(O)C3O)[C@@]21C (stereo partly drawn) | > 10 | 9.79 | > 10 | 8.7 | > 10 | > 10 | > 10 | > 10 | > 10 | > 10 | 6.55 | > 10 | > 10 | > 10 | > 10 | > 10 | > 10 | > 10 | > 10 |  |
| Cc1cc(S(=O)(=O)Nc2nc(N)n(-c3cnc4ccccc4n3)n2)c(S)cc1Cl | > 100 | > 100 | > 100 | > 100 | > 100 | > 100 | 89.2 | > 100 | > 100 | > 100 | > 100 | > 100 | > 100 | > 100 | > 100 | > 100 | > 100 | > 100 | > 100 |  |
| C1COC2SC3=C(SC(=C4SC5=C(SCCS5)S4)S3)SC2O1 (stereo not drawn) | > 100 | > 100 | > 100 | > 100 | > 100 | > 100 | > 100 | > 100 | > 100 | > 100 |  | > 100 | > 100 | > 100 | > 100 | > 100 | > 100 | > 100 | > 100 | 78.3 |
| Cn1c(=O)n(-c2c3ccccc3c(Cl)c3ccccc23)n(C(C)(C)C)c1=O | > 100 | > 100 | > 100 | > 100 | > 100 | > 100 | > 100 | > 100 | > 100 | > 100 | > 100 | > 100 | > 100 | > 100 |  | > 100 | > 100 | 43.9 | > 100 |  |
| CC(=O)OCC1OC(n2c(C)c(N=Nc3ccc(C)cc3)c(C)c(C#N)c2=S)C(OC(C)=O)C(OC(C)=O)C1OC(C)=O (stereo not drawn) | > 100 | > 100 | > 100 |  | 72.4 | > 100 | 34.2 | 74.7 |  | > 100 | > 100 | > 100 |  | > 100 | > 100 | > 100 | > 100 | > 100 | > 100 | > 100 |
| NC(=S)SCCC(=O)O | > 100 | > 100 | > 100 | > 100 | > 100 | > 100 | > 100 | > 100 | > 100 | > 100 | > 100 | > 100 | > 100 | > 100 | > 100 | > 100 | > 100 | > 100 | > 100 |  |
| CCOC(=O)C1C(=O)CC(C)(O)C(C(=O)OCC)C1c1ccc(N(C)C)cc1 (stereo not drawn) | > 100 | > 100 | > 100 | > 100 | > 100 | > 100 | > 100 |  | > 100 | > 100 | > 100 | > 100 | > 100 | > 100 | > 100 | > 100 | > 100 | > 100 | > 100 | > 100 |
| O=[N+]([O-])C(/C(Cl)=C(/Cl)N1CCCCC1)=C1\NCCO1 | > 100 | > 100 | > 100 |  | > 100 | > 100 |  | > 100 | > 100 | > 100 |  | > 100 | > 100 | > 100 | > 100 | > 100 | > 100 | > 100 | > 100 |  |
